Patent US12202815B2, “Selective androgen receptor degrader (SARD) ligands and methods of use thereof” (priority 2018, dated 2025)
Where “and” joins values, the source holds several entries; their conditions need not be identical. Identical values can stand only once. Entries after “also recorded” stand apart in the source; their conditions may differ. Like-named read-outs stand apart in the source and are kept apart here.

How the values were obtained:
[1] = test system: >450 human kinases and mutant variants; assay: KINOMEscan panel cross-reactivity profile; format: binding; conditions: panel of >460 kinases and mutants
Method: (§1) Screening “hits” are identified by measuring the amount of kinase captured in test versus control samples by using a quantitative, precise and ultra-sensitive qPCR method that detects the associated DNA label.
(§2) For most assays, kinase-tagged T7 phage strains were grown in parallel in 24-well blocks in an E. coli host derived from the BL21 strain. […] The lysates were centrifuged (6,000×g) and filtered (0.2 μm) to remove cell debris. The remaining kinases were produced in HEK-293 cells and subsequently tagged with DNA for qPCR detection. […] The liganded beads were blocked with excess biotin and washed with blocking buffer (SeaBlock (Pierce), 1% BSA, 0.05% Tween 20, 1 mM DTT) to remove unbound ligand and to reduce non-specific phage binding. […] Test compounds were prepared as 40× stocks in 100% DMSO and directly diluted into the assay. All reactions were performed in polypropylene 384-well plates in a final volume of 0.02 ml. […] The kinase concentration in the eluates was measured by qPCR.

RLM metabolism half-life = format: in vitro ADME; conditions: rat liver microsomes
Method: (§3) The assay was done in a final volume of 0.5 ml in duplicates (n=2). […] After pre-incubation, reaction was started by addition of 1 mM NADPH (pre-incubated at 37° C.). Incubations were carried out in triplicate and at various time-points (0, 5, 10, 15, 30 and 60 minutes) 100 μl aliquots were removed and quenched with 100 μl of acetonitrile containing internal standard. Samples were vortex mixed and centrifuged at 4000 rpm for 10 minutes. The supernatants were transferred to 96 well plates and submitted for LC-MS/MS analysis. As control, sample incubations done in absence of NADPH were included. From % PCR (% Parent Compound Remaining), rate of compound disappearance is determined (slope) and in vitro CLint (μl/min/mg protein) was calculated.

GSK3A = molecular target: T1, GSK3A (Homo sapiens, UniProt P49840); assay: KINOMEscan competition binding assay; conditions: lower numbers indicate stronger hits
T1 construct: T7 phage fusion or DNA label for qPCR; purchased DiscoveRx
T1 sequence (P49840 whole entry, the tested form may be a part): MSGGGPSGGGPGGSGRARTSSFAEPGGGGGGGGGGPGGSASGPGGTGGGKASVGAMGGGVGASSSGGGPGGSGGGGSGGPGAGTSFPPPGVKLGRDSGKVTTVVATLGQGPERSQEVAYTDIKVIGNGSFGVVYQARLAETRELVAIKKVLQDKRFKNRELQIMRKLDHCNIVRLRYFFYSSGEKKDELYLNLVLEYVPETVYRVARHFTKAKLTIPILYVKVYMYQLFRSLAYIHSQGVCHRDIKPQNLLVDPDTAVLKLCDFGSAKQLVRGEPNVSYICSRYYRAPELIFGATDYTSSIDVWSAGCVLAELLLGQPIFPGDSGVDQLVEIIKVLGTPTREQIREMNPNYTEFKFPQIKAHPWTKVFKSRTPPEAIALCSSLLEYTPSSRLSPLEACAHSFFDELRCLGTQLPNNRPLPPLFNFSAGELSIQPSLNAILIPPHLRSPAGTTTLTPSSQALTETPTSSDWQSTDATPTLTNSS
Method: as §1, §2

[2] = High dose Hershberger experiment, 7 days oral; format: in vivo, Sprague Dawley rat; conditions: for Body wt. on sac. day / Day 0 body wt.: individual animals
Method: Body weights were recorded on day 0 and day 7 (Table 4B). On day 7, animals were sacrificed and organs were observed.

>160 GPCR's = assay: gpcrMAX panel, PathHunter beta-arrestin antagonist primary screen; format: cell-based
Method: The assays were performed utilizing the PathHunter beta-arrestin enzyme fragment complementation (EFC) technology.
The PathHunter® β-Arrestin assay monitors the activation of a GPCR in a homogenous, non-imaging assay format using a technology developed by DiscoveRx called Enzyme Fragment Complementation (EFC) with β-galactosidase (β-Gal) as the functional reporter. […] EA is fused to β-Arrestin and ED is fused to the GPCR of interest. When the GPCR is activated and β-Arrestin is recruited to the receptor, ED and EA complementation occurs, restoring β-Gal activity which is measured using chemiluminescent PathHunter® Detection Reagents.
PathHunter cell lines were expanded from freezer. Cells were seeded in a total volume of 20 μL into white walled, 384-well microplates and incubated at 37° C. for the appropriate time prior to testing.
Intermediate dilution of sample stocks was performed to generate 5× sample in assay buffer. […]
Microplates were read following signal generation with a PerkinElmer Envision™ instrument for chemiluminescent signal detection.
Compound activity was analyzed using CBIS data analysis suite (ChemInnovation, CA). For antagonist mode assays, percentage inhibition was calculated using the following formula: % Inhibition=100%×(1−(mean RLU of test sample−mean RLU of vehicle control)/(mean RLU of EC80 control−mean RLU of vehicle control) [where RLU is relative light unit]).

[3] = for Conc. 1065: individual rat serum
[4] = Pharmacokinetics in male Sprague Dawley rats (oral 7 days, iv Day 1); conditions: male, Sprague Dawley, rat, in vivo
Method: At initial dosing, the animals were 12 weeks of age. The animals were group housed (up to three animals/cage/group) in polycarbonate cages with hardwood chip bedding. […] Water was provided fresh daily, ad libitum. […] As necessary, the 12-hour dark cycle was interrupted to accommodate study procedures. […] Individual doses were calculated based on body weights recorded on Day 1 and Day 7 of dose administration. […] A single intravenous dose was administered via a tail vein and blood sample on Day 1.
Animals were weighed at the time of animal selection and on Day 1 and Day 7 of dose administration.
Centrifugation began within 1 hour of collection. Plasma was placed into 96-well tubes with barcode labels. Plasma was maintained on dry ice prior to storage at approximately −70° C. Drug concentrations were measured by established chromatography/mass spectrometry (LC-MS/MS) methods.

MYLK = molecular target: T2, MYLK (Homo sapiens, UniProt Q15746); assay: KINOMEscan competition binding assay; conditions: lower numbers indicate stronger hits
T2 construct: T7 phage fusion or DNA label for qPCR; purchased DiscoveRx
T2 sequence (Q15746 whole entry, the tested form may be a part): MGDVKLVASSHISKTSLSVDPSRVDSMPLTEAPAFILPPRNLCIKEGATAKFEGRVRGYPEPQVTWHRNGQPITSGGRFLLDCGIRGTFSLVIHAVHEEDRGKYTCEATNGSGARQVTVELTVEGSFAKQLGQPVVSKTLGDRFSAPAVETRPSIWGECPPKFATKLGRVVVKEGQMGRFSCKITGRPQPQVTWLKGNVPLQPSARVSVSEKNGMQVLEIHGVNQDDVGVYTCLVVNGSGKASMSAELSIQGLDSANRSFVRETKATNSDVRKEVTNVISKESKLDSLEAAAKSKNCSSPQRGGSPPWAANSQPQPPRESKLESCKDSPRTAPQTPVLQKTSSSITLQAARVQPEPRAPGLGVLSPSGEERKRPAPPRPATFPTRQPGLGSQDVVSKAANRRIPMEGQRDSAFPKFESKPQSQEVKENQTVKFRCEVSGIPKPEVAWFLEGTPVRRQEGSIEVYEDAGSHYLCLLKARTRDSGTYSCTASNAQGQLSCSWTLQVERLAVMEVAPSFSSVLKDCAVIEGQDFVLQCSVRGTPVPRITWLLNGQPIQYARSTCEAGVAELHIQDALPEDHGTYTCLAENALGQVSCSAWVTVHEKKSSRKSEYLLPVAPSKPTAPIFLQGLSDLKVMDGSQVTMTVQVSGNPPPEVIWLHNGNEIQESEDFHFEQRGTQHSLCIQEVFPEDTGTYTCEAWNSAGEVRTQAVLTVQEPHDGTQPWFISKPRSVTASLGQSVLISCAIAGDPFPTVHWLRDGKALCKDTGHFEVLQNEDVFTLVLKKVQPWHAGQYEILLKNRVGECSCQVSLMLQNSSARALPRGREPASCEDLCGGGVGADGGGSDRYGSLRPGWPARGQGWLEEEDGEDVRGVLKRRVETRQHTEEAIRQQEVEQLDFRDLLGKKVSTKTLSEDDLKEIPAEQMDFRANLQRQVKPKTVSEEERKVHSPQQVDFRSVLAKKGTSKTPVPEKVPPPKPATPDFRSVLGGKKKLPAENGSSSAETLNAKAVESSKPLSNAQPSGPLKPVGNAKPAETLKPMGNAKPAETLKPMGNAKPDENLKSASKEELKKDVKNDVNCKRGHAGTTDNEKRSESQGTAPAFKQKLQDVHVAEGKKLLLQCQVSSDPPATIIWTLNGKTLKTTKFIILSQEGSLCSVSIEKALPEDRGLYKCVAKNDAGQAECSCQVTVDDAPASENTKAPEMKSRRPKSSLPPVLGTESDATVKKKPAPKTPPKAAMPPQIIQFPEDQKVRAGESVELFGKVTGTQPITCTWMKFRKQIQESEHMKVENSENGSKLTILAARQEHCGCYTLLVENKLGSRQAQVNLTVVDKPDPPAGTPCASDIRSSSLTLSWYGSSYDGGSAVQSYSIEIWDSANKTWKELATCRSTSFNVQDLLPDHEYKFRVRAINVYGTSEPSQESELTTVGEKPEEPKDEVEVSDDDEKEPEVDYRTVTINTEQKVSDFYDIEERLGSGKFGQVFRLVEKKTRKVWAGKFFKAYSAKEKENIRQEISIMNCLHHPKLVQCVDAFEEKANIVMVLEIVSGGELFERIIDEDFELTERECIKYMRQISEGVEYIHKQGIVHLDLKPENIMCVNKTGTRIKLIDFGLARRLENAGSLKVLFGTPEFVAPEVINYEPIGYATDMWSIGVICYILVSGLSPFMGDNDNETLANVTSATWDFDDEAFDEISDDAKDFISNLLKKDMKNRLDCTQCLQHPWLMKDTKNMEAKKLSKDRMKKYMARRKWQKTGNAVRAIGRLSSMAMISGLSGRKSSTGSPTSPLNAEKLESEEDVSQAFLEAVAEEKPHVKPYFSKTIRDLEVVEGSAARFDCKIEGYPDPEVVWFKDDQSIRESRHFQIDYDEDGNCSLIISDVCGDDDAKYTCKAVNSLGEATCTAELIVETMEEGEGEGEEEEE
Method: as §1, §2

in vivo = conditions: male, Sprague Dawley, rat, 20 mpk
[5] = format: in vitro ADME; conditions: human liver microsomes
Method: as §3

[6] = test system: MDVR (enzalutamide-resistant VCaP prostate cancer cells); assay: MDVR xenograft in SRG rats, 30 days oral dosing; conditions: rat, in vivo
Method: Male Sprague Dawley Rag2−/−; Il2rg−/− (SRG) rats were housed in group of three rats/cage. They were provided with food and water ad libitum and were maintained in a 12 hour light/dark cycle.
Cell inoculations were carried out in a Class II/A2 biosafety cabinet. The surgical space was cleaned with Clidox® and sterile drapes were placed on the surface. The animals were anesthetized using inhaled isoflurane. Prior to injection, the hind flank was shaved and cleaned with alcohol prep pads. Animals were placed back in their home cage and monitored until they recovered and sternal recumbency was observed.
Cell inoculation: All animals were inoculated with a total volume of 500 μL subcutaneously in the left hind flank. The inoculation suspension consisted of 250 μL of cell suspension mixed with 250 μL of Matrigel, diluted to 10 mg/mL working solution with DMEM, which was mixed on ice immediately by pipetting the cells into the Matrigel using a p1000 micropipette fitted with a sterile aerosol resistant tip prior to injection. The final concentration of Matrigel was 5 mg/mL. […] Each needle/syringe was used for only 1 animal.
SARDs were dissolved at 5-, 10-, or 15 mg/mL in vehicle in a biosafety cabinet using sterile reagents and consumables.
One-way ANOVA and Tukey's post-hoc test were used to compare the difference in percent change in body weight among treatment groups. […]

C[C@](O)(Cn1cc(C#N)cn1)C(=O)Nc1cnc(C#N)c(C(F)(F)F)c1 [Compound 1065, (S)-3-(4-cyano-1H-pyrazol-1-yl)-N-(6-cyano-5-(trifluoromethyl)pyridin-3-yl)-2-hydroxy-2-methylpropanamide]
number of kinases bound (<50% of Percent of Control) [1]: 2
RLM Metebolism (H.L. min) (RLM metabolism half-life): 84 min
Percent Control (GSK3A): 6.4%
gross pathology (in words) ([2]; 100 and 200 mpk, 7 days): no gross pathology
Body wt. on sac. day ([2]; 100 mpk oral 7 days): 475 g and 333 g and 292 g
Day 0 body wt. ([2]; 100 mpk oral 7 days): 404 g and 280 g and 245 g
Body wt. on sac. day ([2]; 200 mpk oral 7 days): 326 g and 313 g and 424 g
Day 0 body wt. ([2]; 200 mpk oral 7 days): 270 g (2×) and 440 g
GPCR cross-reactivity (in words) (>160 GPCR's): no GPCR was inhibited by 50%; also recorded: No GPCR was inhibited by >50%
Conc. 1065 ([3]; 1 mg/kg): 81.58 nM and 87.25 nM and 120.1244 nM and 134.5505 nM and 129.9323 nM
Conc. 1065 ([3]; 5 mg/kg): 967.3936 nM and 798.7984 nM and 630.4879 nM and 691.1901 nM and 485.4264 nM
Conc. 1065 ([3]; 10 mg/kg): 637.641 nM and 915.1312 nM and 824.8076 nM and 681.9936 nM and 795.917 nM
Conc. 1065 ([3]; 20 mg/kg): 1286.902 nM and 1298.179 nM and 1360.687 nM and 1397.834 nM and 1193.986 nM
Serum Conc. ([3]; Table 2, rats 20 mg/kg, 24-30 hours after last dose): 561 nM
Serum Conc. ([3]; Table 3, 20 mg/kg Hershberger): 561 nM
serum drug level (bioavailability) ([3]; rats dosed at 20 mg/kg): 561 nM
AUC0-24 ([4]; iv, 5 mg/kg): 31800 ng·h/mL
AUC(0-inf) ([4]; iv, 5 mg/kg): 40700 ng·h/mL
AUC(0-t) ([4]; iv, 5 mg/kg): 31800 ng·h/mL
C0 ([4]; iv, 5 mg/kg): 2510 ng/mL
Cmax ([4]; iv, 5 mg/kg): 2600 ng/mL
DN AUC0-24 ([4]; iv, 5 mg/kg): 6360
Tmax ([4]; iv, 5 mg/kg): 0.5 h
Vd ([4]; iv, 5 mg/kg): 1.86 L/kg
clearance ([4]; iv, 5 mg/kg): 2.05 mL/min/kg
half-life ([4]; iv, 5 mg/kg): 10.5 h
AUC(0-t) ([4]; po, 1 mg/kg): 7300 ng·h/mL
AUC0-24 ([4]; po, 1 mg/kg/day): 7300 ng·h/mL
AUC(0-t) ([4]; po, 1 mg/kg/day): 7300 ng·h/mL
Cmax ([4]; po, 1 mg/kg/day): 458 ng/mL
DN AUC0-24 ([4]; po, 1 mg/kg/day): 7300
Tmax ([4]; po, 1 mg/kg/day): 6 h
AUC(0-t) ([4]; po, 5 mg/kg): ~35000 ng·h/mL
AUC0-24 ([4]; po, 5 mg/kg/day): 34900 ng·h/mL
AUC(0-t) ([4]; po, 5 mg/kg/day): 34900 ng·h/mL
Cmax ([4]; po, 5 mg/kg/day): 2220 ng/mL
DN AUC0-24 ([4]; po, 5 mg/kg/day): 6980
Tmax ([4]; po, 5 mg/kg/day): 6 h
AUC0-24 ([4]; po, 10 mg/kg/day): 59500 ng·h/mL
AUC(0-t) ([4]; po, 10 mg/kg/day): 59500 ng·h/mL
Cmax ([4]; po, 10 mg/kg/day): 3550 ng/mL
DN AUC0-24 ([4]; po, 10 mg/kg/day): 5950
Tmax ([4]; po, 10 mg/kg/day): 6 h
AUC(0-t) ([4]; po, 20 mg/kg): 102000 ng·h/mL
AUC0-24 ([4]; po, 20 mg/kg/day): 102000 ng·h/mL
AUC(0-t) ([4]; po, 20 mg/kg/day): 102000 ng·h/mL
Cmax ([4]; po, 20 mg/kg/day): 5550 ng/mL
DN AUC0-24 ([4]; po, 20 mg/kg/day): 5120
Tmax ([4]; po, 20 mg/kg/day): 6 h
Percent Control (MYLK): 45%
concentration at 30 h (in vivo): 561 nM
HLM Metabolism (H.L. min) [5]: STABLE
HLM % metabolized after 60 min ([5]; 60 min): 0%
potency vs 1002 in inhibiting enzalutamide-resistant prostate cancer (in words) [6]: approximately two fold more potent than 1002
